This is an account of results in patent US20030109584A1, “Stabilized pharmaceutically effective composition and pharmaceutical formulation comprising the same” (priority 2000, published 2003).

Holding throughout (format): physicochemical
Series [1] in a line: Stability of pravastatin (lactone and impurity formation) in buffers of pH 7 to 11. The note with it: buffers pH 7 to 11 (phosphate, citrate, borate); 1, 5, 13 and 28 days. The source says:
The third observation is that a sufficient stabilization of the active substance is already obtained at a pH of at least 7.0, but a beneficially high stability is effected at a pH of at least 8.0. We have noticed that at a pH below 8 the formation of lactone has occurred and also the amount of other impurities has increased. The presence of humidity in the air and a carbon dioxide-rich atmosphere makes the negative effect of a low pH even stronger. This is illustrated by the following experiment: Pravastatin was dissolved in different buffers with the pH in a range between 7 and 11 (F=phosphate, C=citrate, B=borate). The occurrence of pravastatin in lactone form and the formation of different degradation products (impurities) were measured after 1, 5, 13 and 28 days.

A short description of series [2]: pH of pravastatin sodium crystals kept in normal air, nitrogen or carbon dioxide atmosphere. As for the experimental part:
Another observation was that carbon dioxide from the air may irreversibly and reversibly bind to the active substance and can cause a drop of pH. This is illustrated by the following experiment: 5 g of pravastatin sodium were dissolved in 30 ml of methanol, the pH was adjusted to 10 with 3% aqueous solution of NaOH. 400 ml of ethylacetate were added and the crystals of pravastatin sodium were formed. Crystals were filtered and dried and then put into three different atmospheres: normal air, nitrogen atmosphere and carbon dioxide atmosphere. In normal air and in the nitrogen atmosphere the pH remained the same during a period of 24 hours (normal air: pH 9.2, nitrogen: pH 9.5), but in the carbon dioxide atmosphere the pH dropped in the first two minutes from 9.2 to 6.9. After 12 minutes the pH was 6.6 and after 1 hour the pH was 6.5. After that, the pH remained constant.

Series [3] in a line: pH value of 1% or 5% aqueous solution of the active substance, after preparing and after 1 week on air. As to the method: Within the scope of this invention the term “which will provide a pH value” means a pH value that is measured in an aqueous solution or dispersion of an active substance or of a mixture of the active substance with the buffering substance or of a stabilized active substance according to this invention or of a pharmaceutical formulation or of a stabilized pharmaceutical formulation of an active substance obtained according to this invention. The concentration of such an aqueous solution or dispersion is 1% or 5%. The measurement procedure is described in Examples 1-11.

For the compound `CC[C@H](C)C(=O)O[C@H]1C[C@H](O)C=C2C=C[C@H](C)[C@H](CC[C@@H](O)C[C@@H](O)CC(=O)O)[C@H]21` [Pravastatin Sodium], in series [1], the “pH at which formation of lactone occurred and other impurities increased” value is on record as “below 8”. Moreover, the “pH in carbon dioxide atmosphere after 12 minutes” value in series [2] (carbon dioxide atmosphere, 12 minutes) is 6.6. For the same compound, the “pH in carbon dioxide atmosphere after 1 hour” value in series [2] (carbon dioxide atmosphere, 1 hour, constant afterwards) is given as 6.5. For the same compound, in series [2] (carbon dioxide atmosphere, first two minutes), the “pH in carbon dioxide atmosphere after two minutes” value is listed as 6.9. For the same compound, the “pH at start in carbon dioxide atmosphere” value in series [2] (carbon dioxide atmosphere, starting value) was found to be 9.2. Also, the “pH in normal air” value in series [2] (crystals from solution adjusted to pH 10 with NaOH, normal air, remained the same during 24 hours) worked out at 9.2. In series [2] (nitrogen atmosphere, remained the same during 24 hours), the “pH in nitrogen atmosphere” value is recorded as 9.5. Moreover, in series [3] (1% aqueous solution, after 1 week in air atmosphere), the “Value pH (1%) after 1 week on air atm” value was 7.2. In addition, the “Value pH (1%) after preparing” value in series [3] (1% aqueous solution, after preparing) worked out at 7.4. In addition, the “Value pH (5%) after 1 week on air atm” value in series [3] (5% aqueous solution, after 1 week in air atmosphere) amounted to 7.6. The “Value pH (5%) after preparing” value in series [3] (5% aqueous solution, after preparing) is listed as 7.7.
